# Data reported in patent publication EP0569598A1, “BENZOXAZINONE DERIVATIVE” (JAPAN TOBACCO INC., priority 1991, dated 1993).
# Columns and labels:
# [1] = biological target: T1, human leukocyte elastase (HLE) (Homo sapiens, UniProt P08246); assay: HLE inhibitory activity (synthetic substrate, pNA release, absorbance 405 nm); assay type: biochemical; conditions: pH 8.6; HLE 5.63 nM, substrate 0.2625 mM; 37°C; read-out: IC₅₀ value HLE
# T1 construct: the mixed solution was subjected to density gradient centrifugation, thereby obtaining neutrophiles; from tissue; host or cells: neutrophils from human vein blood (buffy coat)
# T1 sequence (P08246 30-247 limits assumed): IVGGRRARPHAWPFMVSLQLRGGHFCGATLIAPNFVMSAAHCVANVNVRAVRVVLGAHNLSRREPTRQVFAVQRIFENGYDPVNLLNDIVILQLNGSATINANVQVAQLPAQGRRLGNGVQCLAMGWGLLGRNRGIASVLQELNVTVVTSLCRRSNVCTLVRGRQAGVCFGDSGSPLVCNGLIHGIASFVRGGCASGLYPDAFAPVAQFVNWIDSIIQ
# Procedure: (§1) Activities of the Benzoxazine derivatives of the present invention against human leukocyte elastase (HLE), human sputum elastase (HSE), human cathepsin G (HCG), bovine pancreatic α-chmotrypsin (CYT) and bovine pancreatic trypsin (TRY) were measured by the following method.
# A buffy coat was obtained by subjecting human vein blood to centrifugation. To the buffy coat was added distilled water to make a hypotonic solution, thereby bursting erythrocytes. To the residual blood cell component was added a 33.4% of Conrey 400 solution/9% Ficoll solution (the ratio of the former solution to the latter solution is 10:24), and the mixed solution was subjected to density gradient centrifugation, thereby obtaining neutrophiles. The neutrophile fraction was washed with Hanks' buffer for three times and then cells were recovered and cryopreserved at -80°C until use. The cryopreserved-cells were thawed with warm water at 37°C and suspended in a 9-fold volume of lysis buffer containing 0.1M Tris-HCl (pH7.5), 1M MgCl₂ and 0.1% Brij 35. The suspended cells are destroyed by means of polotoron with ice-cooling. The cell suspension was subjected to centrifugation at 100,000 x g for 1 hour. After removing precipitates, 2-fold volume of a Tris-HCl buffer containing 5 mM Tris-HCl(pH 7.5), 1M NaCl and 1.1% Brij 35 was added to the supernatant, thereby obtaining a crude solution of an enzyme extract. The crude solution was subjected to aprotinine affinity column and extracted with an elution buffer containing […] of glycine-HCl (pH 3.3), 1M NaCl and 0.1% Brij 35, thereby obtaining an active fraction. The obtained active fraction was further subjected to MONO S-ion-exchange chromatography and eluted with 2M NaCl linear gradient. The obtained fraction was dialyzed against 25 mM Tris-HCl (pH8.6) and lyophilized, thereby obtained an enzyme sample.
# (§2) A test compound was dissolved in DMSO (for fluorometry) and prepared various concentration of the solution. To each concentration was added 2-fold volume of 0.2M Tris-HCl (pH8.6), thereby obtaining a test solution. Synthetic substrate (Funakoshi, L-1335) was dissolved in DMSO and 2-volume of 0.2M Tris-HCl (pH8.6) was added thereto, thereby obtaining a substrate solution. The reaction was performed using a microplate having 96 wells (Nunk). Six-time reactions were repeated for each concentration. One handred and forty µl of an enzyme solution containing 0.2M Tris-HCl (pH8.6), 30 µl of a test solution and 30 µl of a substrate solution per well of the microplate were respectively pre-incubated at 37°C for 10 minutes. After completion of the incubation, the enzyme solution was mixed with the test sample and incubated for 10 minutes and then the substrate solution was added to perform an enzyme reaction. The absorbance of released P-nitroanilide (PNA) was measured at the wave length of 405 nm by means of a microplate reader (MTP-100; CORONA), thereby determining the substrate decomposition. The rate of the substrate decomposition was shown as an average value of 6 repeated reactions. The inhibitory concentration of a test compound relative to the amount of the substrate decomposition in the reaction mixture without a test compound was regarded as an IC₅₀ value. The final concentration of HLE and a synthesized substrate in the reaction mixture were 5.63 nM and 0.2625 mM, respectively.
# human cathepsin G (HCG) = biological target: T2, human cathepsin G (HCG) (Homo sapiens, UniProt P08311); assay: HCG inhibitory activity (synthetic substrate, pNA release); assay type: biochemical; conditions: pH 7.5; HCG 50 nM, substrate 0.5 mM; read-out: IC₅₀ value HCG
# T2 construct: purchased Cosmo Bio Inc
# T2 sequence (P08311 21-244): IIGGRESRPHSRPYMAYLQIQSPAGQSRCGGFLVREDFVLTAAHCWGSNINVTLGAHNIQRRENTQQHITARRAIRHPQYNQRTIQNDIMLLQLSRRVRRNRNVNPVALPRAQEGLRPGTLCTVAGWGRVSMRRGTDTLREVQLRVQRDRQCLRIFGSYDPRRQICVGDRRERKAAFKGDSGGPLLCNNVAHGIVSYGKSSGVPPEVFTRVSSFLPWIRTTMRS
# Procedure: as §1, §2
# a) Enzyme obtaining route HCG was obtained from Cosmo Bio Inc.
# The same method as in the measurement of HLE inhibitory activity was used except that a buffer solution (pH 7.5) was used. The final concentration of HCG and synthetic substrate (Funakoshi, L-1010) in a reaction mixture were 50 nM and 0.5 mM, respectively.
# [2] = system: neutrophiles from the human peripheral blood; assay: Human neutrophile chemotaxis suppressing activity (fMLP, chemotaxis chamber); assay type: cell-based; conditions: Concentration 12.5 µM, 10-⁷M fMLP, one hour at 37°C
# Procedure: The neutrophile fraction (60% percoal fraction having neutrophile purity of 90% or more) was taken from the human peripheral blood by means of percoal density gradient centrifugation at 2300 rpm for 20 minutes.
# An intercell having a pore diameter of 5 µm, containing 8 x 10⁵ of neutrophiles and the compound of the present invention adjusted in various concentrations was placed in each well of a chemotaxis chamber (KURABO), in which has been added 1300 µl of a medium containing 10-⁷M of formylmethionyl-leucyl-phenylalanine (fMLP), which is a neutrophile chemotaxis factor. After incubating for one hour at 37°C in an incubator containing 5% carbon dioxide, the number of cells migrating from the upper side of the intercell membrane into the lower side of the membrane in the chamber was counted by the following method. That is, the lower side surface of the intercell membrane was washed with PBS for 4 times and fixed with methanol and dyed with hematoxylin-eosin solution. The membrane was removed from the intercell and placed on a slide, dried in air, followed by sealing with Canada balsam. The cell number was microscopically counted in 5 visual fields. Taking average number of the five fields, the average was employed as the number of migrating cells. The value subtracting the migrating cell number in a control experiment containing no fMLP from the cell number in an experiment containing no the compound of the present invention was regarded as 100, the chemotaxis suppressing activity was determined as the following formula: Neutrophilic chemotaxis suppressing activity (%) [formula] = 100 - A/B x 100 [formula] = 100 - (C - D)/(E-D) x 100 [formula] Where: • A: chemotaxis measured in the experiment containing the compound of the present invention; • B: chemotaxis measured in the experiment not containing the compound of the present invention • C: the number of migrating cells measured in the experiment containing both the compound of the present invention and fMLP. • D: the number of migrating cells in the experiment containing neither the compound of the present invention nor fMLP. • E: the number of migrating cells in the experiment containing only fMLP.
smiles,measurement,setting,value
"Cc1cccc2nc([C@@H](NC(=O)OCC(c3ccccc3)c3ccccc3)C(C)C)oc(=O)c12 [Compound 1, 2-[1(S)-[(2,2-diphenylethoxy-carbonyl)amino]-2-methylpropyl]-5-methyl-4H-3,1-benzoxazin-4-one]",IC50,[1],70 nM
same,IC50,human cathepsin G (HCG),> 12500 nM
same,Chemotaxis,[2]; experiment without compound regarded as 100,4.7
same,activity at 12.5 µM,"[2]; Homo sapiens, 1 h",95.3%
